Experimental data: patent EP0559845B1, “Use of compounds in preventing endotoxin shock” (priority 1991, dated 1992)
“Also recorded” adds a separate entry of the source.

How the values were obtained:
[1] = test system: LPS-induced GTPase activity in membranes isolated from RAW 264.7 cells; experiment: GTPase assay: effect of compounds on LPS-stimulated GTPase activity in macrophage membranes (release of 32Pi from γ-32P-GTP); type: biochemical
From the text: We sought to directly evaluate the influence of LPS on possible G-protein function by examining agonist-enhanced GTPase activity, which is a hallmark of G-protein action. Moreover, because macrophages are one of the key cell types in the release of toxic mediators following an LPS challenge, we first assessed the capacity of LPS to influence GTPase activity in membranes isolated from RAW 264.7 cells, which is a highly LPS-responsive macrophage cell line. In these studies, GTPase activity was measured using a standard assay. The activity was determined using 2 µM γ-^32P-GTP in the presence of 0.1 mM ATP and 0.2 mM of the non-hydrolyzable ATP analog, AMPPNP, in order to minimize nonspecific nucleotidase activity in the membrane preparations.
The reaction is initiated by the addition of the γ-^32P-GTP and the mixture incubated at 30-37°C for 15 to 30 minutes. The reaction is terminated by the addition of 500µl of 5% trichloroacetic acid and 500µl of 0.1gm/ml acid-activated charcoal in 5% trichloroacetic acid. The samples are centrifuged at 14,000xg for 10 minutes, and a 550µl aliquot of the supernatant is removed for scintillation counting. The supernatant will contain the released ^32Pi. The extent of GTPase inhibition is measured by the decrease in the amount of ^32Pi released from γ-^32P-GTP. Appropriate controls include mixtures with one of the following omitted: (i) test compound, (ii) endotoxin, and (iii) ATP, ADP or AMPPNP.
The membranes are resuspended in 20 mM HEPES (pH 7.4), 1 mM dithiothreitol, 1 mM EDTA and 10 µg leupeptin/ml. Aliquots are stored at -70°C until assayed.

sheep = experiment: Protection of sheep against the lethal effects of intravenous lipopolysaccharide; type: in vivo
Protocol: Mixed breed sheep weighing 30-70 kg were obtained from the University of Wisconsin Experimental Farms. Sheep were prepared as follows: at least 24 hours before each experiment, catheters were percutaneously placed in the pulmonary artery. Any other catheterizations that were required for infusion were done at this time. All studies were performed on awake, unrestrained sheep placed in portable stanchions with food and water ad libitum. Electronically calculated pulmonary artery pressures as well as heart rates were recorded at various intervals on a polygraph. To ensure a stable baseline prior to the injection of test compounds, approximately 1 hour of baseline measurements were recorded.
In view of the partial protection afforded by lipid X against LPS-induced lethality in mice, the possibility of such protection was also examined in sheep. The sheep system has the important advantage of permitting the administration of much larger doses of lipid X relative to LPS. It is the ratio of lipid X to endotoxin that is critical for survival. […] It is evident that a 5-10 fold excess of lipid X (on a weight basis) over LPS is required to ensure survival. (Because of the inherent LPS resistance of mice, their small body volume, and the limited solubility of lipid X in water, it is impossible to achieve 5-10 fold excess of lipid X relative to LPS in the mouse system.)

## CCCCCCCCCCC[C@@H](O)CC(=O)N[C@H]1[C@@H](OP(=O)(O)O)O[C@H](CO)[C@@H](O)[C@@H]1OC(=O)C[C@H](O)CCCCCCCCCCC [lipid X]
[1]
  inhibition of LPS-stimulated GTPase activity: dose-dependent inhibition; also recorded: dose-dependently inhibiting
[1]; LPS 300 µg/ml or 1 mg/ml
  half-maximal inhibition of LPS-enhanced GTPase activity: 23 to 1 molar ratio of lipid X to LPS
sheep; 100-200 µg/kg of lipid X during the pretreatment period
  survival of subsequent LPS challenge: survived
sheep; Lipid X 50 µg/kg 1 hour prior to endotoxin, Lipopolysaccharide 20 µg/kg
  Survivors: 1/2
sheep; Lipid X 100 µg/kg 15 min. prior to endotoxin, Lipopolysaccharide 10 µg/kg
  Survivors: 3/3
sheep; Lipid X 100 µg/kg 1 hour prior to endotoxin, Lipopolysaccharide 20 µg/kg
  Survivors: 4/4
sheep; Lipid X 200 µg/kg 1 hour prior to endotoxin, Lipopolysaccharide 20 µg/kg
  Survivors: 3/3
sheep; in vivo
  excess of lipid X over LPS required to ensure survival: 5-10 fold excess (on a weight basis
sheep; pretreatment with lipid X
  effect on pulmonary hypertension or fever induced by LPS: does not completely prevent
  effect on serious clinical symptoms (shortness of breath, weakness, diarrhea): alleviates some of the serious clinical symptoms
